Experimental data taken from patent publication US20230059136A1, “THE COMPOUNDS AND COMPOSITIONS FOR TREATING CONDITIONS ASSOCIATED WITH NLRP ACTIVITY” (Novartis AG, priority 2018, published 2023).
Read-outs that look alike come from different tables or passages of the source.

Tested on: IL-1β production in PMA-differentiated THP-1 cells
Experiment: IL-1β production in PMA-differentiated THP-1 cells stimulated with gramicidin (hTHP-1 assay containing 2% fetal bovine serum)
Format: cell-based, human
Details: 2% fetal bovine serum, read-out: hTHP-1 IC50 (Average IC50 of compounds in hTHP-1 assay)
Outline: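 THP-1 cells were differentiated with PMA 20 ng/ml for 16-18 h, then plated at 50,000 cells/well in RPMI with 2% FBS. They were preincubated 1 h with compound (100–0.0017 μM final, 0.37% DMSO), then stimulated with gramicidin 5 μM for 2 h. Supernatant IL-1β was measured by HTRF.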

[1] = Homo sapiens, THP-1, Table B1, class symbols
[2] = Homo sapiens, THP-1, Table B2, class symbols
[3] = Homo sapiens, THP-1, Table B1, cells printed as numeric bound

CC(C)c1nc(-c2cccc(C(F)(F)F)c2)c(F)c(C(C)C)c1CC(=O)N=[S@@](N)(=O)c1cnc(C(C)(C)O)s1 [compound 89, (R)-N-(amino(2-(2-hydroxypropan-2-yl)thiazol-5-yl)(oxo)-λ^6-sulfanylidene)-2-(5-fluoro-2,4-diisopropyl-6-(3-(trifluoromethyl)phenyl)pyridin-3-yl)acetamide]
IC50 [1]: 0.2 to 1 µM

CC(C)c1cc(OC(F)F)cc(C(C)C)c1CC(=O)N=S(N)(=O)c1cnc(C(C)(C)O)s1 (single isomer, unassigned) [Example 49, (R)- or (S)-2-(4-(difluoromethoxy)-2,6-diisopropylphenyl)-N-(2-(2-hydroxypropan-2-yl)thiazol-5-ylsulfonimidoyl)acetamide]
IC50 (Table B1, class symbols): 5 to 30 µM

CC(C)c1ncc(F)c(C(C)C)c1CC(=O)N=S(N)(=O)c1cc(C(C)(C)O)cs1 (single isomer, unassigned) [Example 209, (S) or (R)-N-(amino(4-(2-hydroxypropan-2-yl)thiophen-2-yl)(oxo)-λ^6-sulfaneylidene)-2-(5-fluoro-2,4-diisopropylpyridin-3-yl)acetamide]
IC50 (Table B1, class symbols): 1 to 5 µM

CC(C)c1cc(-c2ccc3c(c2)COCC3)cc(C(C)C)c1CC(=O)N=S(N)(=O)c1cnc(C(C)(C)O)s1 (single isomer, unassigned) [Example 171, (R) or (S)-N-(amino(2-(2-hydroxypropan-2-yl)thiazol-5-yl)(oxo)-λ^6-sulfaneylidene)-2-(4-(isochroman-7-yl)-2,6-diisopropylphenyl) acetamide]
IC50 (Table B1, class symbols): 0.2 to 1 µM

CC(C)c1cc2c(c(C(C)C)c1CC(=O)N=S(N)(=O)c1cnc(C(C)(O)CO)s1)COC2 (single isomer, unassigned) [Example 338]
IC50 [1]: 0.2 to 1 µM

CC(C)c1cc(-c2ccc3c(c2)CCOC3)cc(C(C)C)c1CC(=O)N=S(N)(=O)c1cnc(C(C)(O)CO)s1 (stereo not shown) [Example 253, N-(amino(2-(1,2-dihydroxypropan-2-yl)thiazol-5-yl) (oxo)-λ^6-sulfaneylidene)-2-(4-(isochroman-6-yl)-2,6-diisopropylphenyl)acetamide]
IC50 [1]: 1 to 5 µM

CCn1cc(F)c(S(N)(=O)=NC(=O)Cc2c(C(C)C)cc3c(c2C(C)C)OC(F)(F)O3)n1 (single isomer, unassigned) [Example 401, (S) or (R)-N-(amino(1-ethyl-4-fluoro-1H-pyrazol-3-yl)(oxo)-λ^6-sulfaneylidene)-2-(2,2-difluoro-4,6-diisopropylbenzo[d][1,3]dioxol-5-yl)acetamide]
IC50 (Table B2, class symbols): 5 to 30 µM

CC(C)c1cnc(F)c(C(C)C)c1CC(=O)N=S(N)(=O)c1cnc(C(C)(C)O)s1 (stereo not shown) [Example 154, N-(amino(2-(2-hydroxypropan-2-yl)thiazol-5-yl)(oxo)-λ^6-sulfaneylidene)-2-(2-fluoro-3,5-diisopropylpyridin-4-yl)acetamide]
IC50 [1]: 5 to 30 µM

CC(C)c1cc(C#N)c(F)c(C(C)C)c1CC(=O)N=S(=O)(NC#N)c1cnc(C(C)(O)CO)s1 (single isomer, unassigned) [Example 359, N-(cyanamido(2-((R or S)-1,2-dihydroxypropan-2-yl)thiazol-5-yl)(oxo)-λ^6-sulfaneylidene)-2-(4-cyano-3-fluoro-2,6-diisopropylphenyl)acetamide]
IC50 [2]: 1 to 5 µM

CC(C)c1cc(C#N)c(F)c(C(C)C)c1CC(=O)N=S(N)(=O)c1cnc(C(C)(O)CO)s1 (single isomer, unassigned) [Example 337, (S, R) or (R, R)-N-(amino(2-(1,2-dihydroxypropan-2-yl)thiazol-5-yl)(oxo)-λ^6-sulfaneylidene)-2-(4-cyano-3-fluoro-2,6-diisopropylphenyl) acetamide]
IC50 (Table B1, class symbols): 0.008 to 0.04 µM

COCc1cc(C(C)C)c(CC(=O)N=S(N)(=O)c2sc(C(C)(C)O)nc2CO)c(C(C)C)c1 (single isomer, unassigned) [Example 68, (S)- or (R)-2-(2,6-diisopropyl-4-(methoxymethyl)phenyl)-N-(4-(hydroxymethyl)-2-(2-hydroxypropan-2-yl)thiazol-5-ylsulfonimidoyl)acetamide]
IC50 (Table B1, class symbols): 0.2 to 1 µM

Cc1ccc(-c2cc(C(C)C)c(CC(=O)N=S(N)(=O)c3ncc(C(C)(C)O)s3)c(C(C)C)c2)cc1C (stereo not shown) [Example 121, N-(amino(5-(2-hydroxypropan-2-yl)thiazol-2-yl)(oxo)-λ^6-sulfaneylidene)-2-(3,5-diisopropyl-3′,4′-dimethyl-[1,1′-biphenyl]-4-yl)acetamide]
IC50 [1]: 0.2 to 1 µM

CC(C)c1cc(OC(F)F)cc(C(C)C)c1CC(=O)N=S(N)(=O)c1sc(C(C)(C)O)cc1F (single isomer, unassigned) [Example 77, (R)- or (S)-(4-(difluoromethoxy)-2,6-diisopropylphenyl)-N-(3-fluoro-5-(2-hydroxypropan-2-yl)thiophen-2-ylsulfonimidoyl)acetamide]
IC50 (Table B1, class symbols): 1 to 5 µM

CC(C)c1cc(OC(F)F)cc(C(C)C)c1CC(=O)N=S(N)(=O)c1sc(C(C)(C)O)cc1F (single isomer, unassigned) [Example 76, (S)- or (R)-2-(4-(difluoromethoxy)-2,6-diisopropylphenyl)-N-(3-fluoro-5-(2-hydroxypropan-2-yl)thiophen-2-ylsulfonimidoyl)acetamide]
IC50 (Table B1, class symbols): 0.04 to 0.2 µM

CC(C)c1cc(C(F)F)nc(C(C)C)c1CC(=O)N=S(N)(=O)c1ccc(CN(C)C)cc1 (single isomer, unassigned) [Example 332, (S) or (R)-N-(amino(4-((dimethylamino)methyl)phenyl)(oxo)-λ^6-sulfaneylidene)-2-(6-(difluoromethyl)-2,4-diisopropylpyridin-3-yl)acetamide]
IC50 [3]: > 30 µM

CCc1cc2c(c(C(C)C)c1CC(=O)N=S(N)(=O)c1cc(C(C)(C)O)cs1)COC2 (single isomer, unassigned) [Example 296, (S) or (R)-N-(amino(4-(2-hydroxypropan-2-yl)thiophen-2-yl)(oxo)-λ^6-sulfaneylidene)-2-(6-ethyl-4-isopropyl-1,3-dihydroisobenzofuran-5-yl)acetamide]
IC50 [3]: > 30 µM

CCc1c2c(cc(C(C)C)c1CC(=O)N=S(N)(=O)c1sc(C(C)(C)O)cc1F)COC2 (single isomer, unassigned) [Example 300, (R) or (S)-N-(amino (3-fluoro-5-(2-hydroxypropan-2-yl)thiophen-2-yl)(oxo)-λ^6-sulfaneylidene)-2-(4-ethyl-6-isopropyl-1,3-dihydroisobenzofuran-5-yl)acetamide]
IC50 (Table B1, class symbols): 0.2 to 1 µM

CC(C)c1cc2c(c(C(C)C)c1CC(=O)N=S(=O)(NC#N)c1cc(C(C)(C)O)cs1)COC2 (stereo in doubt) [Example 343, (S)-N-(cyanamido(4-(2-hydroxypropan-2-yl)thiophen-2-yl)(oxo)-λ^6-sulfaneylidene)-2-(4,6-diisopropyl-1,3-dihydroisobenzofuran-5-yl)acetamide]
IC50 [1]: 5 to 30 µM

COCc1cc(C(C)C)c(CC(=O)N=S(N)(=O)c2ncc(C(C)(C)O)s2)c(C(C)C)c1 (stereo not shown) [Example 111, N-(amino(5-(2-hydroxypropan-2-yl)thiazol-2-yl)(oxo)-λ^6-sulfaneylidene)-2-(2,6-diisopropyl-4-(methoxymethyl)phenyl) acetamide]
IC50 [1]: 0.04 to 0.2 µM

CC(C)c1ncc(F)c(C(C)C)c1CC(=O)N=S(N)(=O)c1sc(C(C)(C)O)cc1F (single isomer, unassigned) [Example 210, (S) or (R)-N-(amino (3-fluoro-5-(2-hydroxypropan-2-yl)thiophen-2-yl)(oxo)-λ^6-sulfaneylidene)-2-(5-fluoro-2,4-diisopropylpyridin-3-yl)acetamide]
IC50 (Table B1, class symbols): 5 to 30 µM

COCc1cc(C(C)C)c(CC(=O)N=S(N)(=O)c2cc(C(C)(C)O)cs2)c(C(C)C)c1 (single isomer, unassigned) [Example 158, (S) or (R)-N-(amino(4-(2-hydroxypropan-2-yl)thiophen-2-yl)(oxo)-λ^6-sulfaneylidene)-2-(2,6-diisopropyl-4-(methoxymethyl)phenyl)acetamide]
IC50 (Table B1, class symbols): 1 to 5 µM

CC(C)(O)c1ncc([S@@](=O)(=NC(=O)Cc2c3c(cc4c2CC4)CCC3)NC#N)s1 [Example 362, (R)-N-(cyanamido(2-(2-hydroxypropan-2-yl)thiazol-5-yl) (oxo)-λ^6-sulfaneylidene)-2-(2,4,5,6-tetrahydro-1H-cyclobuta [f]inden-3-yl)acetamide]
IC50 [2]: 1 to 5 µM

CC(C)c1cc2c(c(C(C)C)c1CC(=O)N=S(N)(=O)c1sc(C(C)(C)O)cc1F)COC2 (single isomer, unassigned) [Example 321, (R) or (S)-N-(amino (3-fluoro-5-(2-hydroxypropan-2-yl)thiophen-2-yl)(oxo)-λ^6-sulfaneylidene)-2-(4,6-diisopropyl-1,3-dihydroisobenzofuran-5-yl)acetamide]
IC50 (Table B1, class symbols): 0.04 to 0.2 µM

CC(C)c1cc(C(F)F)cc(C(C)C)c1CC(=O)N=S(N)(=O)c1ccc(CN(C)C)nc1 (single isomer, unassigned) [Example 327, (S) or (R)-N-(amino(6-((dimethylamino)methyl)pyridin-3-yl)(oxo)-λ^6-sulfaneylidene)-2-(4-(difluoromethyl)-2,6-diisopropylphenyl) acetamide]
IC50 [3]: > 30 µM

CCc1c2c(cc(C(C)C)c1CC(=O)N=S(N)(=O)c1cc(C(C)(C)O)cs1)COC2 (single isomer, unassigned) [Example 294, (S) or (R)-N-(amino(4-(2-hydroxypropan-2-yl)thiophen-2-yl)(oxo)-λ^6-sulfaneylidene)-2-(4-ethyl-6-isopropyl-1,3-dihydroisobenzofuran-5-yl)acetamide]
IC50 (Table B1, class symbols): 5 to 30 µM
